According to paper PMC4441267:

Experiment: CuAAC macrocyclisation of azide/terminal alkyne linear peptidomimetics to 1,4-triazole (CuI 2 eq, DIPEA 3 eq, Ar-degassed), then Boc removal (TMSCl/MeOH GP4; HCl/dioxane GP5 for A13w, J13w)
Settings: THF (reflux), 1.2 mM, 66.0 °C, 18.0 h, 2 steps

Q: With `COC(=O)[C@@H]1CNC(=O)[C@H](Cc2ccccc2)n2cc(nn2)CNC(=O)NCCC[C@H](NC(=O)OC(C)(C)C)C(=O)N1` [Boc-Orn(CONH-propargyl)-Dap(N3-Phe)-OMe] as the molecule, how does the ring closure, yield over several steps (from C#CCNC(=O)NCCC[C@H](NC(=O)OC(C)(C)C)C(=O)N[C@@H](CNC(=O)[C@H](Cc1ccccc1)N=[N+]=[N-])C(=O)OC, 18-membered ring) read?
A: 96%

Q: With `COC(=O)[C@@H]1CCCn2cc(nn2)CCCC(=O)NCCC[C@H](NC(=O)OC(C)(C)C)C(=O)N1` [Boc-Orn(5-hexynoyl)-Orn(N3)-OMe] as the molecule, how does the ring closure, yield over several steps (from C#CCCCC(=O)NCCC[C@H](NC(=O)OC(C)(C)C)C(=O)N[C@@H](CCCN=[N+]=[N-])C(=O)OC, 18-membered ring) read?
A: 71%

Q: With `COC(=O)[C@@H]1CCCCNC(=O)[C@H](Cc2ccccc2)n2cc(nn2)CCCC(=O)Nc2ccc(cc2)C[C@H](NC(=O)OC(C)(C)C)C(=O)N1` [Boc-Phe(4-NH-5-hexynoyl)-Lys(N3-Phe)-OMe] as the molecule, how does the ring closure, yield over several steps (from C#CCCCC(=O)Nc1ccc(C[C@H](NC(=O)OC(C)(C)C)C(=O)N[C@@H](CCCCNC(=O)[C@H](Cc2ccccc2)N=[N+]=[N-])C(=O)OC)cc1, 24-membered ring) read?
A: 11%

Q: Which ring closure, yield over several steps (from C#CCCC(=O)NCC[C@H](NC(=O)OC(C)(C)C)C(=O)N[C@@H](CCCCNC(=O)[C@H](Cc1ccccc1)N=[N+]=[N-])C(=O)OC, 20-membered ring) does the source give for `COC(=O)[C@@H]1CCCCNC(=O)[C@H](Cc2ccccc2)n2cc(nn2)CCC(=O)NCC[C@H](NC(=O)OC(C)(C)C)C(=O)N1` [Boc-Dab(4-pentynoyl)-Lys(N3-Phe)-OMe] here?
A: 91%

Q: With `COC(=O)[C@@H]1CNC(=O)[C@H](Cc2ccccc2)n2cc(nn2)CNC(=O)NCCCC[C@H](NC(=O)OC(C)(C)C)C(=O)N1` [Boc-Lys(CONH-propargyl)-Dap(N3-Phe)-OMe] as the molecule, how does the ring closure, yield over several steps (from C#CCNC(=O)NCCCC[C@H](NC(=O)OC(C)(C)C)C(=O)N[C@@H](CNC(=O)[C@H](Cc1ccccc1)N=[N+]=[N-])C(=O)OC, 19-membered ring) read?
A: 70%

Q: For `COC(=O)[C@@H]1CCCCNC(=O)[C@H](Cc2ccccc2)n2cc(nn2)CCCC(=O)NCCC[C@H](NC(=O)OC(C)(C)C)C(=O)N1` [Boc-Orn(5-hexynoyl)-Lys(N3-Phe)-OMe], which ring closure, yield over several steps (from C#CCCCC(=O)NCCC[C@H](NC(=O)OC(C)(C)C)C(=O)N[C@@H](CCCCNC(=O)[C@H](Cc1ccccc1)N=[N+]=[N-])C(=O)OC, 22-membered ring) is on record?
A: 99%

Q: Which ring closure, yield over several steps (from C#CCCCC(=O)NCC[C@H](NC(=O)OC(C)(C)C)C(=O)N[C@@H](CCCCNC(=O)[C@H](Cc1ccccc1)N=[N+]=[N-])C(=O)OC, 21-membered ring) does the source give for `COC(=O)[C@@H]1CCCCNC(=O)[C@H](Cc2ccccc2)n2cc(nn2)CCCC(=O)NCC[C@H](NC(=O)OC(C)(C)C)C(=O)N1` [Boc-Dab(5-hexynoyl)-Lys(N3-Phe)-OMe] here?
A: 88%

Q: With `COC(=O)[C@@H]1CCCCNC(=O)[C@H](Cc2ccccc2)n2cc(nn2)CNC(=O)NCC[C@H](NC(=O)OC(C)(C)C)C(=O)N1` [Boc-Dab(CONH-propargyl)-Lys(N3-Phe)-OMe] as the molecule, how does the ring closure, yield over several steps (from C#CCNC(=O)NCC[C@H](NC(=O)OC(C)(C)C)C(=O)N[C@@H](CCCCNC(=O)[C@H](Cc1ccccc1)N=[N+]=[N-])C(=O)OC, 20-membered ring) read?
A: 80%

Q: With `COC(=O)[C@@H]1CCCn2cc(nn2)CNC(=O)NCCCC[C@H](NC(=O)OC(C)(C)C)C(=O)N1` [Boc-Lys(CONH-propargyl)-Orn(N3)-OMe] as the molecule, how does the ring closure, yield over several steps (from C#CCNC(=O)NCCCC[C@H](NC(=O)OC(C)(C)C)C(=O)N[C@@H](CCCN=[N+]=[N-])C(=O)OC, 18-membered ring) read?
A: 93%

Q: With `COC(=O)[C@@H]1CCCCn2cc(nn2)CCC(=O)NCC[C@H](NC(=O)OC(C)(C)C)C(=O)N1` [Boc-Dab(4-pentynoyl)-Lys(N3)-OMe] as the molecule, how does the ring closure, yield over several steps (from C#CCCC(=O)NCC[C@H](NC(=O)OC(C)(C)C)C(=O)N[C@@H](CCCCN=[N+]=[N-])C(=O)OC, 17-membered ring) read?
A: 62%

Q: For `COC(=O)[C@@H]1CCCn2cc(nn2)CCC(=O)NCCCC[C@H](NC(=O)OC(C)(C)C)C(=O)N1` [Boc-Lys(4-pentynoyl)-Orn(N3)-OMe], which ring closure, yield over several steps (from C#CCCC(=O)NCCCC[C@H](NC(=O)OC(C)(C)C)C(=O)N[C@@H](CCCN=[N+]=[N-])C(=O)OC, 18-membered ring) is on record?
A: 99%

Q: Which ring closure, yield over several steps (from C#CCNC(=O)NCCC[C@H](NC(=O)OC(C)(C)C)C(=O)N[C@@H](CCCCN=[N+]=[N-])C(=O)OC, 18-membered ring) does the source give for `COC(=O)[C@@H]1CCCCn2cc(nn2)CNC(=O)NCCC[C@H](NC(=O)OC(C)(C)C)C(=O)N1` [Boc-Orn(CONH-propargyl)-Lys(N3)-OMe] here?
A: 99%

Q: Which ring closure, yield over several steps (from C#CCCCC(=O)NCCCC[C@H](NC(=O)OC(C)(C)C)C(=O)N[C@@H](CCCCN=[N+]=[N-])C(=O)OC, 20-membered ring) does the source give for `COC(=O)[C@@H]1CCCCn2cc(nn2)CCCC(=O)NCCCC[C@H](NC(=O)OC(C)(C)C)C(=O)N1` [Boc-Lys(5-hexynoyl)-Lys(N3)-OMe] here?
A: 98%

Q: Which ring closure, yield over several steps (from C#CCCCC(=O)NCC[C@H](NC(=O)OC(C)(C)C)C(=O)N[C@@H](CCCN=[N+]=[N-])C(=O)OC, 17-membered ring) does the source give for `COC(=O)[C@@H]1CCCn2cc(nn2)CCCC(=O)NCC[C@H](NC(=O)OC(C)(C)C)C(=O)N1` [Boc-Dab(5-hexynoyl)-Orn(N3)-OMe] here?
A: 60%

Q: Which ring closure, yield over several steps (from C#CCNC(=O)NCCCC[C@H](NC(=O)OC(C)(C)C)C(=O)N[C@@H](CCCCNC(=O)[C@H](Cc1ccccc1)N=[N+]=[N-])C(=O)OC, 22-membered ring) does the source give for `COC(=O)[C@@H]1CCCCNC(=O)[C@H](Cc2ccccc2)n2cc(nn2)CNC(=O)NCCCC[C@H](NC(=O)OC(C)(C)C)C(=O)N1` [Boc-Lys(CONH-propargyl)-Lys(N3-Phe)-OMe] here?
A: 99%

Q: For `COC(=O)[C@@H]1CCCn2cc(nn2)CCC(=O)NC[C@H](NC(=O)OC(C)(C)C)C(=O)N1` [Boc-Dap(4-pentynoyl)-Orn(N3)-OMe], which ring closure, yield over several steps (from C#CCCC(=O)NC[C@H](NC(=O)OC(C)(C)C)C(=O)N[C@@H](CCCN=[N+]=[N-])C(=O)OC, 15-membered ring) is on record?
A: 53%

Q: For `COC(=O)[C@@H]1CCCn2cc(nn2)CCC(=O)NCCCC[C@H](NC(=O)OC(C)(C)C)C(=O)N[C@H](C(=O)OC)CCC(=O)N1` [Boc-Lys(4-pentynoyl)-Glu(gamma-Orn(N3)-OMe)-OMe], which ring closure, yield over several steps (from C#CCCC(=O)NCCCC[C@H](NC(=O)OC(C)(C)C)C(=O)N[C@@H](CCC(=O)N[C@@H](CCCN=[N+]=[N-])C(=O)OC)C(=O)OC, 23-membered ring) is on record?
A: 86%

Q: For `COC(=O)[C@@H]1CCCCn2cc(nn2)CNC(=O)NC[C@H](NC(=O)OC(C)(C)C)C(=O)N1` [Boc-Dap(CONH-propargyl)-Lys(N3)-OMe], which ring closure, yield over several steps (from C#CCNC(=O)NC[C@H](NC(=O)OC(C)(C)C)C(=O)N[C@@H](CCCCN=[N+]=[N-])C(=O)OC, 16-membered ring) is on record?
A: 56%
